Test results from US20230024302A1, “2,3,5-TRISUBSTITUTED PYRAZOLO[1,5-A]PYRIMIDINE COMPOUNDS” (Arcus Biosciences, Inc., priority 2019, published 2023).

Key:
[1] = molecular target: T1, PI3Kγ (Homo sapiens, UniProt P48736); assay: PI3Kγ cellular assay in THP-1 cells (AKT pS473 AlphaLISA); format: cell-based; settings: Table 1, rhMCP-1 stimulated AKT pS473, read-out: cellular potency (PI3Kγ IC50)
T1 construct: host or cells: THP-1
Experimental: Twenty microliters of serum starved THP-1 cells were added to the compound plate in serum free DMEM at a density of 9×10^6 cells per ml. Final assay conditions comprised 1.8×10^5 THP-1 cells per well with test compounds in 2% DMSO across a concentration range from 4 nM to 30 μM. […] Briefly, 10 μL of 4× lysis buffer was added to cells after stimulation. Following 60 min incubation at rt, 10 μL of cell lysate was transferred to a fresh 384-well Opti-plate to which 5 μL of AlphaLisa acceptor beads and 5 μL of AlphaLisa donor beads had been added. […] PI3Kγ activity was evaluated as a correlate of endogenous AKT phosphorylation levels. Percentage maximum activity in each test well was calculated based on DMSO (100% activity) and positive control treated cell wells (0% activity). The potencies (IC50's) of test compounds were determined using a standard 4-parameter fit non-linear regression fit.

[2] = molecular target: T2, PI3Kγ (p120γ) (Homo sapiens, UniProt P48736); assay: Inhibition of PI3K kinase activity (ADP Glo), PI3Kγ; settings: Table 1, p120γ, read-out: biochemical potency (PI3Kγ IC50)
T2 construct: purchased Promega V1761
Experimental: Compounds were evaluated to determine the potency with which they inhibited the kinase activity of the Class I PI3K subunits p110α/p85α (Promega, Cat #V1721), p110β/p85α (Promega, Cat #V1751), p120γ (Promega, Cat #V1761) and p110δ/p85α (Promega, Cat #V1771). Activity was determined as a function of ADP (adenosine diphosphate) generated from ATP consumed during the phosphorylation of Phosphatidylinositol 4,5-bisphosphate (PIP2) (Promega, Cat #V1701) to yield Phosphatidylinositol (3,4,5)-trisphosphate (PIP3). ADP levels in the assay mixture at the end of the reaction were quantitated using ADP Glo (Promega, Cat #V9103) according to the manufacturer's recommended protocol.
Enzyme was prepared for each of the PI3K subunits in 100 mM HEPES, pH 7.4, 100 mM NaCl, 6 mM MgCl2 and 0.05% BSA. p110α/p85α was prepared at 2 nM (2×), p110β/p85α was prepared at 7 nM (2×), p120γ was prepared at 8 nM (2×) and p110δ/p85α was prepared at 2 nM (2×). Five microliters of 2× enzyme dilution of each PI3K subunit were added to a 384-well white Opti-plates pre-dispensed with compound and allowed to incubate for 1 h at rt. A substrate mix containing 0.1 mg/ml (2×) of PIP2 and 50 μM (2×) ATP (Promega, Cat #V915) was prepared in 25 mM HEPES and 0.5 mM EGTA. Reactions were initiated by addition of 5 μl of 2× substrate mix to each well of the plates containing various PI3K isoforms and allowed to proceed for 60 min at rt. Ten microliters of ADP Glo reagent 1 were added to the wells of each plate and allowed to incubate at rt for 45 min according to the manufacturer's directions. Following incubation, 20 μl of ADP Glo reagent 2 was added to each plate and allowed to incubate for an additional 45 min. Luminescent signal, generated by ADP Glo, was quantified by reading on a Perkin Elmer Envision multimode reader. Compound potencies (IC50's) were determined using a standard 4-parameter fit non-linear regression fit.

T2 sequence (P48736 whole entry): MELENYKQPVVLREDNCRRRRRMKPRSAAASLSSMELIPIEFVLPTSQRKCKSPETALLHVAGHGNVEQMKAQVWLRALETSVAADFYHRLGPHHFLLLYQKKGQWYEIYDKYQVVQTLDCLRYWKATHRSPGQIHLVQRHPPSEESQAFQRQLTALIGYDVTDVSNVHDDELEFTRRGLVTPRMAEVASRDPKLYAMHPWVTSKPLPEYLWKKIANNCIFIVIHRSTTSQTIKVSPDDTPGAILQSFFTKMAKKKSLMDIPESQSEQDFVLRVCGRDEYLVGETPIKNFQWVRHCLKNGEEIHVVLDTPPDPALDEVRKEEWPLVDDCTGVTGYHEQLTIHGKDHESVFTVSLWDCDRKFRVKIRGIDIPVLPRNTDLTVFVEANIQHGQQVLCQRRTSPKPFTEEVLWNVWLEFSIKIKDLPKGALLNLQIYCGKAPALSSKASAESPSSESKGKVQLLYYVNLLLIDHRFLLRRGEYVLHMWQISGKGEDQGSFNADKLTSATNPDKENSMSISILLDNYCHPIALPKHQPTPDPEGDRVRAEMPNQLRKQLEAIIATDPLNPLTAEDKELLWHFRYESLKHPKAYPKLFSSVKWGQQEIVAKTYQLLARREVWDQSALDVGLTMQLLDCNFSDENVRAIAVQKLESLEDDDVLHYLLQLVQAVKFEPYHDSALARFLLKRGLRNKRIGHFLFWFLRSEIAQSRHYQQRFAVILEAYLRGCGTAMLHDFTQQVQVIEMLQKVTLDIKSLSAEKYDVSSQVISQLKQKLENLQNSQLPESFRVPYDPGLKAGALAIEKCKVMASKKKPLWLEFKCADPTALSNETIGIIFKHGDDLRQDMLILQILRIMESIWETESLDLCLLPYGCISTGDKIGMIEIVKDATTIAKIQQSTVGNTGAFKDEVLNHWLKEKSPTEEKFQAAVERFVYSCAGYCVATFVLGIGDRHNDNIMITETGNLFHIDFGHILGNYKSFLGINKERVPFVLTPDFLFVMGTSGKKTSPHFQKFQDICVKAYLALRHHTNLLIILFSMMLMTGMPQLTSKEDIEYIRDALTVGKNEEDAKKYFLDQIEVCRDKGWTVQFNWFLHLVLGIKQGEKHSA
T1 sequence (P48736 whole entry): as above

Row | IC50 [1] [nM] | IC50 [2] [nM] | SMILES
1 | < 100 | < 100 | Cc1cc(-c2ccn3nc(N)c(C(=O)N[C@H]4C[C@H](CO)C4)c3n2)cc2c1C(=O)N([C@@H](C)C1CC1)C2 [Example 12, 2-Amino-5-{2-[(1S)-1-cyclopropylethyl]-7-methyl-1-oxo-2,3-dihydro-1H-isoindol-5-yl}-N-[trans-3-(hydroxymethyl)cyclobutyl]pyrazolo[1,5-a]pyrimidine-3-carboxamide]
2 | < 100 | < 100 | Cc1cc(-c2ccn3nc(N)c(C(=O)N[C@]4(C)C[C@@H](O)C4)c3n2)cc2c1C(=O)N([C@@H](C)C1CC1)C2 [Example 13, 2-Amino-5-{2-[(1S)-1-cyclopropylethyl]-7-methyl-1-oxo-2,3-dihydro-1H-isoindol-5-yl}-N-[trans-3-hydroxy-1-methylcyclobutyl]pyrazolo[1,5-a]pyrimidine-3-carboxamide]
3 | < 100 | < 100 | Cc1cc(-c2ccn3nc(N)c(C(=O)N[C@H]4C[C@H](C(C)(C)O)C4)c3n2)cc2c1C(=O)N([C@@H](C)C1CC1)C2 [Example 14, 2-Amino-5-{2-[(1S)-1-cyclopropylethyl]-7-methyl-1-oxo-2,3-dihydro-1H-isoindol-5-yl}-N-[trans-3-(2-hydroxypropan-2-yl)cyclobutyl]pyrazolo[1,5-a]pyrimidine-3-carboxamide]
4 | < 100 | < 100 | Cc1cc(-c2ccn3nc(N)c(C(=O)Nc4cccc(C(=O)O)c4)c3n2)cc2c1C(=O)N([C@@H](C)C1CC1)C2 [Example 15, m-[(5-{2-[(S)-1-Cyclopropylethyl]-7-methyl-5-isoindolinoyl}-2-amino-1,4,7a-triaza-3-indenyl)carbonylamino]benzoic acid]
5 | < 100 | < 100 | Cc1cc(-c2ccn3nc(N)c(C(=O)Nc4cnn(CCO)c4)c3n2)cc2c1C(=O)N([C@@H](C)C1CC1)C2 [Example 16, 2-Amino-5-{2-[(1S)-1-cyclopropylethyl]-7-methyl-1-oxo-2,3-dihydro-1H-isoindol-5-yl}-N-[1-(2-hydroxyethyl)-1H-pyrazol-4-yl]pyrazolo[1,5-a]pyrimidine-3-carboxamide]
6 | < 100 | < 100 | Cc1cc(-c2ccn3nc(N)c(C(=O)Nc4cnn(CC(C)(C)O)c4)c3n2)cc2c1C(=O)N([C@@H](C)C1CC1)C2 [Example 17, 2-Amino-5-{2-[(1S)-1-cyclopropylethyl]-7-methyl-1-oxo-2,3-dihydro-1H-isoindol-5-yl}-N-[1-(2-hydroxy-2-methylpropyl)-1H-pyrazol-4-yl]pyrazolo[1,5-a]pyrimidine-3-carboxamide]
7 | < 100 | < 100 | Cc1cc(-c2ccn3nc(N)c(C(=O)Nc4cnn(C)c4)c3n2)cc2c1C(=O)N([C@@H](C)C1CC1)C2 [Example 18, 2-Amino-5-{2-[(1S)-1-cyclopropylethyl]-7-methyl-1-oxo-2,3-dihydro-1H-isoindol-5-yl}-N-(1-methyl-1H-pyrazol-4-yl)pyrazolo[1,5-a]pyrimidine-3-carboxamide]
8 | < 100 | < 100 | Cc1cc(-c2ccn3nc(N)c(C(=O)Nc4cnn(C)c4C)c3n2)cc2c1C(=O)N([C@@H](C)C1CC1)C2 [Example 19, 2-Amino-5-{2-[(1S)-1-cyclopropylethyl]-7-methyl-1-oxo-2,3-dihydro-1H-isoindol-5-yl}-N-(1,5-dimethyl-1H-pyrazol-4-yl)pyrazolo[1,5-a]pyrimidine-3-carboxamide]
9 | < 100 | < 100 | C[C@@H](C1CC1)N1Cc2cc(-c3ccn4nc(N)c(C(=O)NC5CC5)c4n3)cc(OC(F)(F)F)c2C1=O [Example 20, 2-Amino-N-cyclopropyl-5-{2-[(1S)-1-cyclopropylethyl]-1-oxo-7-(trifluoromethoxy)-2,3-dihydro-1H-isoindol-5-yl}pyrazolo[1,5-a]pyrimidine-3-carboxamide]
